Test results: US7538185B2, “Glucagon-like peptide-1 analogs with long duration of action” (Theratechnologies Inc., priority 2004, dated 2009)

Key:
CD-1 mice [1] = assay: Post-prandial blood glucose levels in CD-1 mice (Example 2, FIG. 1); assay type: in vivo; conditions: CD-1 mice fasted overnight, fed 30 minutes, peptides 400 μg/kg sc, blood glucose followed 6 hours
Experimental: Various peptides, including peptides of the present invention (400 μg/kg), were administered sc at 30 minutes and the blood glucose levels were determined for the next 6 hours. The data are presented as mean ±SEM values;
Overnight fasted CD-1 normal female mice (6 wk. Charles River, Montreal, Canada), were fed ad libidum for 30 minutes. […] Blood samples were drawn by tail vein excision and blood glucose levels (mmol/L) were determined for the next 6 hours using a One-Touch™ glucometer.

[2] = test system: cAMP production in RINm5F cells; assay: cAMP production in RINm5F cells (Example 5); assay type: cell-based; conditions: 30 minutes at 37° C., 0.1 mM IBMX, mean ± SEM
Experimental: RINm5F cells (ATCC # CRL-2058) were grown according to the manufacturer's specifications. Cells from approximately 90% confluent flasks were trypsinized and counted. […] Samples of the stock solutions were then aliquoted in 100 μl volumes (100 μg), to which were then added 400 μl H2O. The aliquots were then frozen and lyophilized overnight. The lyophilized samples were kept at −80° C. until used. The samples were prepared just prior to running the experiments, at a concentration of 1 mM (accounting for peptide purity and peptide content when available). From 2× stock solutions, dose-responses (10^−10 M to 10^−5 M) were measured in RPMI containing 0.1 mM IBMX. […] Cell culture media was gently aspired from the wells. The cells were then pre-incubated in 100 μl RPMI 0.1 mM IBMX at 37° C. for 10 minutes. […] At the end of the incubation period, the supernatant was collected and assayed for cAMP concentration, using a radioimmunoassay kit (DPC). Radioactive counts were transformed into cAMP amounts using a standard curve. The obtained cAMP values were corrected for the total protein in the corresponding wells as determined using the Coomassie blue assay. The cAMP values are expressed as mean ±SEM in pmol/mg protein (Table 3). Dose responses of cAMP were fitted to a sigmoidal curve model (fixed slope) using GraphPad Prism 3.02™. When performing a protein assay, the amount of protein per well is assayed for each sample. The cells were lysed with NaOH (0.1 N) and a 10 μl aliquot was used to assay the protein levels. This is done using Coomassie Blue (Pierce) and an automated plate reader Emax Pro™ (Molecular Devices).

[3] = Nauck 1996; Todd 1998; cited from earlier work
[4] = active GLP-1; Holst 1994; cited from earlier work
[5] = molecular target: T1, GLP-1 receptor in RINm5F cells (Rattus norvegicus, UniProt P32301); assay: Displacement of 125I-GLP-1(7-36)NH2 using RINm5F cells (Example 4, FIG. 3); assay type: binding; conditions: RINm5F cell membranes, 400 μg protein, 22° C., 45 minutes
T1 construct: The cell membranes were diluted to obtain aliquots of 400 μg of protein per assay tube; host or cells: RINm5F cells, sonicated to a membrane preparation
T1 sequence (P32301 22-463): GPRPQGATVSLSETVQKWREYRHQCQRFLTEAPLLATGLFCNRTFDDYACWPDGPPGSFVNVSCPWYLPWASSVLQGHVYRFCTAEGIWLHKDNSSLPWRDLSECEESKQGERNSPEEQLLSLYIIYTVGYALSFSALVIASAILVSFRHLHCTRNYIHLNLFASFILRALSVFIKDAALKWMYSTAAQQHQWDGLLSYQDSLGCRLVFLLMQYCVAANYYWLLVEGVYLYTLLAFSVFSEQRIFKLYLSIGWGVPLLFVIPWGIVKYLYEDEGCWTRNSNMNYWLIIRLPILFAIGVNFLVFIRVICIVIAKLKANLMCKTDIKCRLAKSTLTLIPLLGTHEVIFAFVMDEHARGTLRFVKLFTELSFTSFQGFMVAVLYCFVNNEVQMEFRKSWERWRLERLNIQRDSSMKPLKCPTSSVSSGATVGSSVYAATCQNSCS
Experimental: The IC50 is calculated as the half-maximal inhibition of binding of the radiolabeled peptide; RINm5F cells (ATCC # CRL-2058) were grown according to the manufacturer's specifications. Cells from confluent flasks were maintained for four (4) days prior to the experiment. The cells were then scrapped and collected in 15 ml conical tubes followed by sonication and evaluation of protein levels. The cell membranes were diluted to obtain aliquots of 400 μg of protein per assay tube. Aliquots of RINm5F cells containing 400 μg of protein were incubated at 22° C. […] The reactions were stopped using 100 mM Tris-HCl (3×3 mL, pH 7.4) and the solutions passed through a GF/C Whatman glass microfiber filter. The latter was subsequently placed into glass tubes and counted on a Packard COBRA II Gamma counter™. Displacement isotherms were traced and analyzed using Prism™ (GraphPad, Ca).

Sprague-Dawley rats = assay: Blood glucose levels in Sprague-Dawley rats under hyperglycemic clamping (Example 3, FIG. 2); assay type: in vivo; conditions: hyperglycemic clamping at 15 mM, sc
Experimental: Various peptides, including peptides of the present invention (100 μg/kg) were administered sc. Alterations in blood glucose levels (Delta glucose: mM) are shown on the abscissa. The data are presented as mean ±SEM values;
The animals (Sprague-Dawley rats) were maintained on standard laboratory chow under a 12:12 light:dark cycle. Following a 12 hour fasting period, the animals were anesthetized (Isoflurane 2%) and a carotid and jugular catheter installed to allow blood withdrawal and glucose injections (1.0 g/kg bolus followed by an infusion of 1.4 g/kg/hr) respectively. The animals received a subcutaneous injection of the analogs at different concentrations (300 μg/kg) 90 minutes after initiating the glucose bolus and infusion, at a time period where blood glucose concentrations have reached a steady level. Blood glucose measurements were taken prior to and 30, 60, 90, 100, 110, 120, 135, 150, 180, 210, and sometimes 240 and 300 minutes after the injection of glucose.
Glucose measurements were carried out immediately following sampling (0.3-0.4 ml; if needed) by placing a blood droplet on a glucometer strip. The glucose measurements were carried out prior to plasma separation (centrifugation) required to perform the insulin and/or any other assay.

CD-1 mice [6] = assay: Post-prandial glucose lowering in fed CD-1 mice (Example 6, FIG. 4); assay type: in vivo; conditions: 400 μg/kg sc, AUC glucose over 6 hours
Experimental: Post-prandial AUC glucose levels for a 6 hour period are presented as a bar (mean ±SEM; n=the number of animals as presented above the bar). […] FIGS. 5, 6, 7 and 8 illustrate the effect (dose response) on post-prandial glucose levels in CD-1 mice for selected analogs. […] The blood glucose levels were measured for a period of up to 6 hours following injection (mean ±SEM; upper panel). The AUC glucose for the 6 hours period is presented as a bar (mean ±SEM; lower panel; n is the number of animals as presented on top of the lower panel bars); The animals (CD-1 mice) were maintained on standard laboratory chow under a 12:12 light:dark cycle. The animals were kept in groups of 4 mice per cage. […] The amount of food eaten was monitored. The food was then removed and the animals were injected subcutaneously with either vehicle or with a GLP-1 analogue to be tested. […] A small piece of the tip of the tail of the CD-1 mice was cut with a scalpel and a drop of blood drawn by applying light pressure with the thumb and index from the base of the tail to the tip. The drop of blood was placed on a glucometer strip (Accucheck™ compact, Roche) and a reading obtained. The scab was removed and the same procedure applied for each subsequent measurement.

[7] = test system: streptozotocin-induced diabetic CD-1 mice; assay: Glucose lowering in fed streptozotocin-induced diabetic CD-1 mice (Example 8, FIGS. 12-16); assay type: in vivo; conditions: for glucose levels of streptozotocin-induced diabetic mice / duration of action: fed STZ-induced diabetic CD-1 mice, sc; for duration of action: FIGS. 12-16
Experimental: Blood glucose levels were measured for 12 hours post-injection (mean ±SEM; upper panel). […] In order to compare the duration of the effects of TH0396 and Exendin-4™, the glucose levels at the last hour of observation were analyzed in a dose-dependent manner. […] At 10:00 am, the animals were injected subcutaneously with the agent. Blood glucose levels were measured for 12 hours post-injection (mean ±SEM; upper panel). Average glucose levels at 11 and 12 hours are presented after subtracting the fed glucose levels of normal mice (n is the number of animals as presented on top of the lower panel bars). The animals (CD-1 mice) were maintained on standard laboratory chow under a 12:12 light:dark cycle. The animals were kept in groups of 4 mice per cage. […] The amount of food eaten was monitored for the duration of the experiment. […] A small piece of the tip of the tail of the CD-1 mice was cut with a scalpel and a drop of blood drawn by applying light pressure with the thumb and index from the base of the tail to the tip. The drop of blood was placed on a glucometer strip (Accucheck™ compact, Roche) and a reading obtained. The scab was removed and the same procedure applied for each subsequent measurement.

Substance | EC50 [2] [nM] | Maximal response [2] [pmol/mg protein] | reduction of post-prandial glucose (CD-1 mice [6]) | glucose levels of streptozotocin-induced diabetic mice [7] | duration of action [7] | other results
2-Hydroxybenzoyl-NH-His-Ala-Glu-Gly-Thr-Phe-Thr-Ser-Asp-Val-Ser-Ser-Tyr-Leu-Glu-Gly-Gln-Ala-Ala-Lys-Glu-Phe-Ile-Ala-Trp-Leu-Val-Lys-Gly-Arg-NH2 [TH0318] | 13.6 ± 2.9 | 3.5 ± 0.2 |  |  |  | duration of hypoglycemic action (CD-1 mice [1]): 2 h
HAEGTFTSDVSSYLEGQAAKEFIAWLVKGR [GLP-1, reference compound] | 1.8 ± 0.9 | 1.5 ± 0.3 |  |  |  | duration of hypoglycemic action (CD-1 mice [1]): 2 h; duration of hypoglycemic action [3]: 2 to 3 h; metabolic clearance rate [4]: 12 to 13 min
His-Ala-Glu-Gly-Thr-Phe-Thr-Ser-Asp-Val-Ser-Ser-Tyr-[(S)-Octylglycine]-Glu-Gly-Gln-Ala-Ala-Lys-Glu-Phe-Ile-Ala-Trp-Leu-Val-Lys-Gly-Arg-NH2 [TH0322] | 0.2 ± 0.2 | 1.0 ± 0.2 |  |  |  | potency in displacing receptor bound ligand (125I-GLP-1(7-36)NH2) [5]: considerably more potent than GLP-1
His-Gly-Glu-Gly-Thr-Phe-Thr-Ser-Asp-Val-Ser-Ser-Tyr-Leu-Glu-Gly-Gln-Ala-Ala-Lys-Ala-Phe-lle-Glu-Trp-Leu-Lys-Asn-NH2 [TH0384] |  |  |  |  |  | potency on blood glucose levels (delta glucose) (Sprague-Dawley rats): more potent than GLP-1 or the 2-hydroxybenzoyl-GLP-1 analog TH0318; potency in displacing receptor bound ligand (125I-GLP-1(7-36)NH2) [5]: considerably more potent than GLP-1
His-Gly-Glu-Gly-Thr-Phe-Thr-Ser-Asp-Val-Ser-Ser-Tyr-[(S)-Octylglycine]-Glu-Gly-Gln-Ala-Ala-Lys-Ala-Phe-Ile-Glu-Trp-Leu-Lys-Asn-NH2 [TH0397] |  |  | potently reduce post-prandial glucose |  |  | 
trans-3-hexenoyl-NH-His-Ala-Glu-Gly-Thr-Phe-Thr-Ser-Asp-Val-Ser-Ser-Tyr-[(S)-Octylglycine]-Glu-Gly-Gln-Ala-Ala-Lys-Ala-Phe-Ile-Glu-Trp-Leu-Lys-Asn-NH2 [TH0395] | 6.1 ± 0.9 | 3.7 ± 0.4 | potently reduce post-prandial glucose | down to those seen in normal feeding mice | extended duration of action | potency compared with Exendin-4 ([7]; STZ-induced diabetic mice, initial 6 hours of the study, FIG. 14): more potent then Exendin-4™
trans-3-hexenoyl-NH-His-Ala-Glu-Gly-Thr-Phe-Thr-Ser-Asp-Val-Ser-Ser-Tyr-[(S)-Octylglycine]-Glu-Gly-Gln-Ala-Ala-Lys-Ala-Phe-Ile-Glu-Trp-Leu-Val-Lys-Asn-NH2 [TH0396] | 2.3 ± 1.7 | 3.9 ± 0.3 | potently reduce post-prandial glucose | down to those seen in normal feeding mice | extended duration of action | 
trans-3-hexenoyl-NH-His-Ala-Glu-Gly-Thr-Phe-Thr-Ser-Asp-Val-Ser-Ser-Tyr-[(S)-Octylglycine]-Glu-Gly-Gln-Ala-Ala-Lys-Glu-Phe-Ile-Ala-Trp-Leu-Val-Lys-Aib-Arg-NH2 [TH0426] | 0.4 ± 0.4 | 5.7 ± 0.6 |  |  |  | 
trans-3-hexenoyl-NH-His-Ala-Glu-Gly-Thr-Phe-Thr-Ser-Asp-Val-Ser-Ser-Tyr-[(S)-Octylglycine]-Glu-Gly-Gln-Ala-Ala-Lys-Glu-Phe-Ile-Ala-Trp-Leu-Val-Lys-Gly-Arg-NH2 [TH0424] | 6.3 ± 1.7 | 4.3 ± 0.2 | potently reduce post-prandial glucose | down to those seen in normal feeding mice | extended duration of action | 
